These results are taken from patent publication US11708348B2, “Protease inhibitors for treatment of coronavirus infections” (The Scripps Research Institute, priority 2021, dated 2023).

One experiment relates to SARS-CoV-2 strain USA-WA1/2020. Nature of the experiment: microbe, parasite or virus in culture. The experiment is classed as cell-based. The settings on record: Severe acute respiratory syndrome coronavirus 2, HeLa-ACE2, 24 h, HeLa-ACE2 cells, SARS-CoV-2 infection, 24 h; bound printed in cell; read-out: EC50, uM (Hela).
For the compound `CC[C@@H](O)C(=O)N[C@@H](CC1(C)CC1)C(=O)N[C@@H](C[C@@H]1CCNC1=O)C(=O)COC(F)(F)F` [Compound 376, (R)-2-hydroxy-N-((S)-3-(1-methylcyclopropyl)-1-oxo-1-(((S)-3-oxo-l-((S)-2-oxopyrrolidin-3-yl)-4-(trifluoromethoxy)butan-2-yl)amino)propan-2-yl)butanamide], the 50% effective concentration (EC50) (commonly the midpoint of the concentration-response curve) is over 1 µM.

The experiment is the same for the next values; noted with them: Severe acute respiratory syndrome coronavirus 2, HeLa-ACE2, 24 h, HeLa-ACE2 cells, SARS-CoV-2 infection, 24 h; class symbols; read-out: EC50, uM (Hela).
Regarding `CC[C@@H](O)C(=O)NC(CC1(C)CC1)C(=O)N[C@@H](C[C@@H]1CCNC1=O)C(=O)COC(F)(F)F` (stereo partly drawn) [Compound 372, (2R)-2-hydroxy-N-(3-(1-methylcyclopropyl)-1-oxo-1-(((S)-3-oxo-l-((S)-2-oxopyrrolidin-3-yl)-4-(trifluoromethoxy)butan-2-yl)amino)propan-2-yl)butanamide], the concentration giving a half-maximal response (EC50) lay in the range of 0.2 to 0.5 µM.

As for `CC[C@@H](O)C(=O)N1[C@H](C(=O)N[C@@H](C[C@@H]2CCNC2=O)C(=O)COC(F)(F)F)C[C@@H]2CCCC[C@@H]21` [Compound 373, (2S,3aS,7aS)-1-((R)-2-hydroxybutanoyl)-N-((S)-3-oxo-1-((S)-2-oxopyrrolidin-3-yl)-4-(trifluoro-methoxy)butan-2-yl)octahydro-1H-indole-2-carboxamide], the EC50 is 0.2 to 0.5 µM.

`CC[C@@H](O)C(=O)N1[C@H](C(=O)N[C@@H](C[C@@H]2CCNC2=O)C(=O)COC(F)(F)F)C[C@@H]2CCC[C@@H]21` [Compound 374, (2S,3aS,6aS)-1-((R)-2-hydroxybutanoyl)-N-((S)-3-oxo-1-((S)-2-oxopyrrolidin-3-yl)-4-(trifluoromethoxy)butan-2-yl)octahydrocyclo-penta[b]pyrrole-2-carboxamide]: the EC50 is 0.5 to 1 µM.

In the case of `CC[C@@H](O)C(=O)N[C@H](CC1(C)CC1)C(=O)N[C@@H](C[C@@H]1CCNC1=O)C(=O)COC(F)(F)F` [Compound 375, (R)-2-hydroxy-N-((R)-3-(l-methylcyclopropyl)-1-oxo-1-(((S)-3-oxo-l-((S)-2-oxopyrrolidin-3-yl)-4-(trifluoromethoxy)butan-2-yl)amino)propan-2-yl)butanamide], the EC50 was in the range of 0.05 to 0.2 µM.

For `CC[C@@H](O)C(=O)N1C[C@@H]2CCC[C@@H]2[C@H]1C(=O)N[C@@H](C[C@@H]1CCNC1=O)C(=O)COC(F)(F)F` [Compound 377, (1S,3aR,6aS)-2-((R)-2-hydroxybutanoyl)-N-((S)-3-oxo-1-((S)-2-oxopyrrolidin-3-yl)-4-(trifluoromethoxy)butan-2-yl)octahydrocyclo-penta[c]pyrrole-1-carboxamide], the EC50 is 0.05 to 0.2 µM.

For the compound `CCC[C@@H](O)C(=O)N1C[C@H]2[C@@H]([C@H]1C(=O)N[C@@H](C[C@@H]1CCNC1=O)C(=O)COC(F)(F)F)C2(C)C` [Compound 378, (1R,2S,5S)-3-((R)-2-hydroxypentanoyl)-6,6-dimethyl-N-((S)-3-oxo-1-((S)-2-oxopyrrolidin-3-yl)-4-(trifluoromethoxy)butan-2-yl)-3-azabicyclo[3.1.0]-hexane-2-carboxamide], the EC50 was under 0.05 µM.

Take `CC[C@@H](C)[C@@H](O)C(=O)N1C[C@@H]2CCC[C@@H]2[C@H]1C(=O)N[C@@H](C[C@@H]1CCNC1=O)C(=O)COC(F)(F)F` [Compound 379, (1S,3aR,6aS)-2-((2R,3R)-2-hydroxy-3-methylpentanoyl)-N-((S)-3-oxo-1-((S)-2-oxopyrrolidin-3-yl)-4-(trifluoromethoxy)butan-2-yl)octahydrocyclo-penta[c]pyrrole-1-carboxamide]: the EC50 was under 0.05 µM.

Regarding `CC[C@@H](C)[C@@H](O)C(=O)N1CC2(CC2)C[C@H]1C(=O)N[C@@H](C[C@@H]1CCNC1=O)C(=O)COC(F)(F)F` [Compound 380, (S)-5-((2R,3R)-2-hydroxy-3-methylpentanoyl)-N-((S)-3-oxo-1-((S)-2-oxopyrrolidin-3-yl)-4-(trifluoromethoxy)butan-2-yl)-5-azaspiro[2.4]-heptane-6-carboxamide], the EC50 lay within 0.05 to 0.2 µM.
